This is an account of results in PMC5006645 (EBioMedicine, 2016).

Data set [1] relates to non-adherent bone marrow cells. As to the kind of experiment: Osteoclastogenesis assay from non-adherent bone marrow cells. It is filed as cell-based. To be noted: ex vivo; 10 μM SR10171 or 1 μM rosiglitazone; M-CSF and RANKL.
A further data set deals with S273pPPARγ. Description: Inhibition of S273 phosphorylation of PPARγ. It is filed as biochemical.
Data set [2] in a line: Glucose tolerance test in DIO mice. The class given is in vivo, C57BL/6 mice. The note with it: DIO animals, 25 mg/kg/d, 4 weeks.
The test system of data set [3] is trabecular and cortical bone of lean C57BL/6 mice. As to the kind of experiment: Lean mice experiment: bone mCT and histomorphometry. To be noted: for mineral apposition rate (MAR) and bone formation rate (BFR): proximal tibia.
Data set [4] shares this test system. To be noted: 15 mg/kg/d, 8 weeks; previously established, ref not given; cited from earlier work.
The test system of a further data set is PPARγ. The class given is cell-based. The note with it: AD2 cells; 1 μM rosiglitazone or 5 μM SR10171 1 h, then TNF-α 50 ng/ml 1 h.
The subject of data set [5] is osteocytes from femora cortical bone. As to the kind of experiment: Gene expression in osteocytes freshly isolated from femora of treated animals. The class given is in vivo, C57BL/6 mice.
The next data set relates to marrow MSCs. As to the kind of experiment: Marrow MSC cultures: adipocyte markers and CFU-OB osteoblast differentiation. The note with it: marrow MSC culture, 6 days; 10 μM SR10171 or 1 μM rosiglitazone. It is filed as cell-based.
A further data set concerns the target T1, PPARα (Homo sapiens, UniProt Q07869).
T1 sequence (Q07869 200-468 limits assumed): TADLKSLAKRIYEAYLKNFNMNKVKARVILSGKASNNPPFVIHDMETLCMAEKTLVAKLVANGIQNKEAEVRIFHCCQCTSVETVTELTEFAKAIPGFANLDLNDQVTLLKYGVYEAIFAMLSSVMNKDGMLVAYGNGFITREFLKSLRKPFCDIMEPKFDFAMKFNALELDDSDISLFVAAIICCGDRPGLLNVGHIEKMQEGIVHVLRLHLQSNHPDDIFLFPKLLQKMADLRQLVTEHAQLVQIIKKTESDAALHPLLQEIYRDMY

Data set [6] concerns TCF/LIF/β-catenin complex. As to the kind of experiment: Top-Flash luciferase reporter in U33/γ2 cells. The class given is cell-based. The note with it: 72 h. On the technique in general: Reporter assays use an easily measured gene product as a stand-in for the process of interest.
Data set [7] can be described thus: Plasma levels at the end of experiments. The note with it: for concentration at 4 days: C57BL/6, mouse, plasma, 5 mg/kg/d. It is filed as in vivo, C57BL/6 mice.
A further data set relates to cortical bone. Description: Cortical tissue mineral density. It is filed as in vivo, C57BL/6 mice. To be noted: mouse model not stated; control 954.6 ± 17.6.
The test system of data set [8] is bone and marrow fat of DIO C57BL/6 mice. The class given is in vivo.
Data set [9] is described as follows: Body weight of treated mice. The class given is in vivo, C57BL/6 mice.
[10] abbreviates: midshaft tibia, calcein labeling.

On to `CN(CCOc1ccc(CC2SC(=O)NC2=O)cc1)c1ccccn1` (racemic) [Rosiglitazone, (RS)-5-[4-(2-[methyl(pyridin-2-yl)amino]ethoxy)benzyl]thiazolidine-2,4-dione, reference compound], for which the “number of multi-nucleated TRAP-positive osteoclast-like cells” value in [1] is reported as “increased”. Further, in the data set with S273pPPARγ (20 μM), the “% inhibition S273pPPARγ (20 μM)” value was 100%. Further, the glucose tolerance result in data set [2] is “normalized”. Further, in data set [3] (15 mg/kg/d, 8 weeks), the “increase of adipocyte number” value was determined as 5 fold; the trabecular bone mass entry is on record as “decreased”; the “mineral apposition rate (MAR) and bone formation rate (BFR)” value was “attenuated”. The “decrease of bone mass” value in data set [4] is given as 20%. Further, in the data set with PPARγ, the “phosphorylation of S112 of PPARγ” value was “alters” and the “phosphorylation of S273 of PPARγ” value is listed as “block”. Besides, in data set [5], the “Dkk1 expression in osteocytes of treated animals” value is “increased” and the “Sost expression in osteocytes of treated animals” value is given as “unaffected”. Besides, the “basal expression of Fabp4 and Adipoq” value in the data set on marrow MSCs is recorded as “increased”. Also, the “EC50 PPARα GAL-4” value on PPARα was “No activity”. For the same molecule, the “β-catenin transcriptional activity (Top-Flash)” value in data set [6] was “decreased”. This molecule showed a concentration at 4 days in data set [7] of 1670 nM. In addition, in the data set with cortical bone, the “cortical tissue mineral density (TMD)” value was 954.5 ± 17.9 mg HA/cm^3.
For `Cc1c(C)n(Cc2cccc(OC(C)(C)C(=O)O)c2)c2ccc(C(=O)N[C@@H](C)c3ccc(C(C)(C)C)cc3)cc12` [SR10171, (S)-2-(3-((5-((1-(4-(tert-butyl)phenyl)ethyl)carbamoyl)-2,3-dimethyl-1H-indol-1-yl)methyl)phenoxy)-2-methylpropanoic acid], the “number of multi-nucleated TRAP-positive osteoclast-like cells” value in data set [1] is given as “increased”. Besides, the “S273 phosphorylation blocking activity, lower than rosiglitazone” value in the data set with S273pPPARγ (relative to rosiglitazone) was found to be 50%. In addition, the glucose tolerance entry in data set [2] was “normalized”. Also, the “decrease in marrow fat volume vs no drug control” value in data set [8] (25 mg/kg/d, 4 weeks, tibia) is given as roughly 5 fold. The “periosteal labeling, times larger than control” value in data set [8] (setting [10]) is on record as 9 fold. Moreover, in data set [3] (15 mg/kg/d, 8 weeks), the “Trabecular bone mass in proximal tibia, increase vs non-treated controls” value is given as 26%; the “decrease of number of marrow adipocytes” value is 50%; the “mineral apposition rate (MAR) and bone formation rate (BFR)” value is “increase”. Moreover, in data set [3] (setting [10]), the “periosteal labeling, times larger than control” value was 1.5 fold. Further, in data set [9] (DIO mice maintained on HFD, 25 mg/kg/d, 4 weeks), the body weight result is on record as “decreased”. In addition, the body weight result in data set [9] (lean animals, 15 mg/kg/d, 8 weeks) is “no impact”. Also, in data set [5], the “Dkk1 expression in osteocytes of treated animals” value was “decreased” and the “Sost expression in osteocytes of treated animals” value is recorded as “decreased”. In addition, the “basal expression of Fabp4 and Adipoq” value with marrow MSCs is reported as “decreased”. In addition, the concentration at 4 days in data set [7] was 4010 nM. In [7] (animals treated for 4 days), the “retention levels in plasma, higher than rosiglitazone” value worked out at 2.5 fold. Besides, the “cortical tissue mineral density (TMD)” value in the data set on cortical bone is reported as 978.6 ± 10.4 mg HA/cm^3.
